In general, melting point refers to the temperature of the solid-liquid transition. In turn, `COc1cccc(CC(=O)N/N=C/c2ccc(O)cc2)c1` [compound 15] returned a melting point of 162 to 163 °C.

Regarding `COc1cc(O)ccc1/C=N/NC(=O)Cc1ccc(O)cc1` [compound 6], the melting point is 224 °C.

`COc1cccc(CC(=O)N/N=C/c2ccc(O)c(F)c2)c1` [compound 17] had a melting point of 190 to 191 °C.

`COc1cccc(CC(=O)N/N=C/c2cc([N+](=O)[O-])ccc2O)c1` [compound 29]: the melting point was 198 to 199 °C.

The compound `COc1cc(O)ccc1/C=N/NC(=O)C(O)c1ccccc1` (stereo not shown) [compound 30] returned a melting point of 217 to 218 °C.

For `O=C(Cc1cccc(F)c1)N/N=C/c1ccc(O)c(F)c1` [compound 20], the melting point lay in the range of 193 to 194 °C.

Regarding `COc1cc(O)ccc1/C=N/NC(=O)Cc1ccc(F)cc1Cl` [compound 13], the melting point was in the range of 242 to 243 °C.

In turn, `COc1cc(O)ccc1/C=N/NC(=O)Cc1cccc([N+](=O)[O-])c1` [compound 26] had a melting point of 240 to 241 °C.

For the compound `COc1cc(O)ccc1/C=N/NC(=O)Cc1ccccc1Cl` [compound 10], the melting point lay in the range of 134 to 135 °C.

Consider `COc1cccc(CC(=O)N/N=C/c2ccc(O)cc2O)c1` [compound 24], for which the melting point was in the range of 205 to 206 °C.

Turning to `COc1cc(O)ccc1/C=N/NC(=O)Cc1cc(O)cc(O)c1` [compound 19], the melting point was 246 °C (dec.).

Compound `COc1cccc(CC(=O)N/N=C(\C)c2ccc(O)cc2OC)c1` [compound 18] yielded a melting point of 160 to 162 °C.

With `COc1cc(O)ccc1/C=N/NC(=O)Cc1cccc(C)c1` [compound 8], the melting point is 207 to 208 °C.

Take `COc1cc(O)ccc1/C=N/NC(=O)Cc1ccccc1C` [compound 9]: the melting point was in the range of 119 to 120 °C.

Consider `COc1cc(O)cc(C)c1/C=N/NC(=O)Cc1cccc(O)c1` [compound 40], for which the melting point was in the range of 194 to 195 °C.

`Cc1cc(O)ccc1/C=N/NC(=O)Cc1cccc(O)c1` [compound 37] came in with a melting point of 203 to 204 °C.

Compound `COc1cc(O)ccc1/C=N/NC(=O)Cc1cccc(OS(C)(=O)=O)c1` [compound 35] returned a melting point of 132 °C.

Take `COc1cccc(CC(=O)N/N=C/c2c(C)cc(O)cc2C)c1` [compound 16]: the melting point is 172 to 173 °C.

In turn, `COc1cc(O)ccc1/C=N/NC(=O)Cc1ccc(F)cc1` [compound 12] had a melting point of 184 to 185 °C.

As to `COc1cccc(CC(=O)N/N=C/c2cc(Cl)ccc2O)c1` [compound 28], the melting point was in the range of 178 to 179 °C.

As to `COc1cc(O)ccc1/C=N/NC(=O)Cc1ccc(Cl)c(Cl)c1` [compound 7], the melting point fell in the range of 232 to 233 °C.

In turn, `COc1cc(O)ccc1/C=N/NC(=O)Cc1cccc(Br)c1` [compound 33] had a melting point of 214 to 215 °C.

`COc1cccc(CC(=O)N/N=C/c2ccc(OC(C)=O)cc2OC)c1` [compound 21] returned a melting point of 147 to 148 °C.

`O=C(Cc1ccccc1)N/N=C/c1ccc(O)c(F)c1` [compound 5] displayed a melting point of 207 °C.

`COc1cc(O)ccc1/C=N/NC(=O)Cc1cccc(C(F)(F)F)c1` [compound 22] returned a melting point of 203 to 204 °C.

As to `COc1cc(O)ccc1/C=N/NC(=O)Cc1ccccc1F` [compound 41], the melting point was in the range of 213 to 215 °C.

Regarding `COc1cc(O)ccc1/C=N/NC(=O)Cc1cccc(F)c1` [compound 14], the melting point lay in the range of 111 to 112 °C.

Compound `COc1cccc(CC(=O)N/N=C/c2ccc(O)cc2OC)c1` [compound 4] had a melting point of 166 to 167 °C.

`COc1cccc(OCC(=O)N/N=C/c2ccc(O)cc2OC)c1` [compound 25] registered a melting point of 173 to 174 °C.

As to `COc1cc(O)ccc1/C=N/NC(=O)Cc1cccc(Cl)c1` [compound 11], the melting point was in the range of 121 to 122 °C.

Consider `COc1cccc(CC(=O)N/N=C(\C)c2ccc(O)cc2)c1` [compound 34], for which the melting point is 162 to 164 °C.

Compound `CCOc1cc(O)ccc1/C=N/NC(=O)Cc1cccc(O)c1` [compound 38] registered a melting point of 190 to 192 °C.

For `COc1cc(O)ccc1/C=N/NC(=O)Cc1cc(F)cc(F)c1` [compound 36], the melting point fell in the range of 224 to 225 °C.

`COc1cccc(CCC(=O)N/N=C/c2ccc(O)cc2OC)c1` [compound 23] showed a melting point of 159 to 160 °C.

The record behind these values is patent publication US20070060646A1, “Acylhydrazone derivatives and the use thereof in the inhibition, regulation and/or modulation of kinase signal transduction” (priority 2003, published 2007).
